The term IC50 denotes the midpoint of a concentration-inhibition curve. Higher therefore signals weaker potency in that assay.

For test [1] the following is noted: moderate-to-severe HS, seven of nine patients, open-label pilot-trial; cited from earlier work.
Test [2] concerns the target T1, IL-17A(FLAG-Tagged): IL-17RA(His-Tagged) binding (Homo sapiens, UniProt Q16552, K93Q). Nature of the test: IL-17A(FLAG-tagged):IL-17RA(His-tagged) binding disruption Eu-HTRF assay, Protocol 1. The note with it: FLAG-IL-17A 2.5 nM; average if tested more than once. The procedure, abridged: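 Compound pre-incubated 1 h at rt with FLAG-IL-17A (2.5 nM final) in PBS/0.01% Triton X-100, then 10His-IL-17RA, Eu-anti-FLAG and D2-anti-His added with KF; 2 h at rt. HTRF 665/620 nm ratio vs concentration (22-point 2-fold series) fitted to one-site competition for IC50.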
On the technique in general: Time-resolved FRET reads energy transfer from a long-lived donor to a nearby acceptor.

Test [3] concerns the target T1, IL-17A(FLAG-Tagged): IL-17RA(His-Tagged) binding. Nature of the test: IL-17A(FLAG-tagged):IL-17RA(His-tagged) binding disruption Eu-HTRF assay, Protocol 2. The note with it: FLAG-IL-17A 1 nM; average if tested more than once. The procedure, abridged: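 FLAG-tagged IL-17A (1 nM final) was preincubated with compound (2-fold serial dilutions, 22 points) for 1 h at rt in PBS + 0.01% Triton X-100. 10×His-IL-17RA, Eu-anti-FLAG and D2-anti-His in buffer containing KF were then added for 2 h at rt. IC50 came from the 665/615 nm HTRF ratio fitted to a one-site competition model.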

In test [4] the test system is IL-17A-induced G-CSF production in human normal keratinocyte (NHK). Nature of the test: NHK assay: IL-17A-induced G-CSF production in normal human keratinocytes. In kind it is cell-based. The note with it: Homo sapiens, Keratinocyte, 24 h, IL-17A 5 ng/mL, G-CSF by HTRF, average if tested more than once. The procedure, abridged:
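Stimulus rhIL-17A 5 ng/mL final, premixed 1 h rt with compound; adult NHK, 5% FBS, 0.2% DMSO. Viability by CellTiter-Glo vs DMSO.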

T1 sequence (Q16552 with tags, fused parts or gaps K93Q): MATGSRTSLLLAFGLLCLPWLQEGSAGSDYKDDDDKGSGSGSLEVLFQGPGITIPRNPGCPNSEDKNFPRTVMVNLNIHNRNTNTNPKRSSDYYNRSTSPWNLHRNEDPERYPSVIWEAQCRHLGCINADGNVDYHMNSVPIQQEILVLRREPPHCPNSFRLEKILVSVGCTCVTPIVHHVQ

For the compound secukinumab, in test [1], the “patients achieved HiSCR” value is recorded as 78%.
Take `Cc1nonc1C(=O)N[C@H](c1cn2ncc([C@@H](COC3CC3)N3CC(F)(F)CNC3=O)cc2n1)C1CCC(F)(F)CC1` [Example 16, N—((S)-(7-((S)-2-Cyclopropoxy-1-(5,5-difluoro-2-oxotetrahydropyrimidin-1(2H)-yl)ethyl)imidazo[1,2-b]pyridazin-2-yl)(4,4-difluorocyclohexyl)methyl)-4-methyl-1,2,5-oxadiazole-3-carboxamide]: the IC50 in test [2], in test [3] and in test [4] was less than 50 nM in each case.
On to `O=C(N[C@H](c1cn2ncc(CN3CC(F)(F)C(F)(F)CNC3=O)cc2n1)C1CCC(F)(F)CC1)c1nonc1C1CC1` [Example 86, (S)-4-Cyclopropyl-N-((4,4-difluorocyclohexyl)(7-((5,5,6,6-tetrafluoro-2-oxo-1,3-diazepan-1-yl)methyl)imidazo[1,2-b]pyridazin-2-yl)methyl)-1,2,5-oxadiazole-3-carboxamide], for which the IC50 in test [2], in test [3] and in test [4] was less than 50 nM throughout.
For the compound `COC[C@H](c1cnn2cc([C@@H](NC(=O)c3nonc3C3CC3)C3CCC(F)(F)CC3)nc2c1)N1CC(F)(F)CNC1=O` [Example 11, 4-Cyclopropyl-N—((S)-(7-((S)-1-(5,5-difluoro-2-oxotetrahydropyrimidin-1(2H)-yl)-2-methoxyethyl)imidazo[1,2-b]pyridazin-2-yl)(4,4-difluorocyclohexyl)methyl)-1,2,5-oxadiazole-3-carboxamide], the IC50 in test [2], in test [3] and in test [4] was less than 50 nM in each case.
As to `Cc1nonc1C(=O)N[C@H](c1cn2ncc(CN3CC(C)(C)CNC3=O)cc2n1)C1CCC(F)(F)CC1` [Example 32, (S)—N-((4,4-Difluorocyclohexyl)(7-((5,5-dimethyl-2-oxotetrahydropyrimidin-1(2H)-yl)methyl)imidazo[1,2-b]pyridazin-2-yl)methyl)-4-methyl-1,2,5-oxadiazole-3-carboxamide], the half-inhibitory concentration (IC50) in test [2] and in test [4] was more than 100 nM in each case.
In the case of `CC1CCCN(Cc2cnn3cc([C@@H](NC(=O)c4ccnn4C(C)C)C4CCC(F)(F)CC4)nc3c2)C(=O)N1` (single isomer, unassigned) [Example 94, N—((S)-(4,4-Difluorocyclohexyl)(7-(((R*)-4-methyl-2-oxo-1,3-diazepan-1-yl)methyl)imidazo[1,2-b]pyridazin-2-yl)methyl)-1-isopropyl-1H-pyrazole-5-carboxamide], the 50% inhibitory concentration (IC50) in test [2] and in test [4] was more than 100 nM each time.
`COC[C@H](c1cnn2cc([C@@H](NC(=O)c3nonc3C)C3CCC(F)(F)CC3)nc2c1)N1CC(F)(F)CNC1=O` [Example 12, N—((S)-(7-((S)-1-(5,5-Difluoro-2-oxotetrahydropyrimidin-1(2H)-yl)-2-methoxyethyl)imidazo[1,2-b]pyridazin-2-yl)(4,4-difluorocyclohexyl)methyl)-4-methyl-1,2,5-oxadiazole-3-carboxamide]: the IC50 in test [2] and in test [4] was less than 50 nM in each case.
On to `O=C(N[C@H](c1cn2ncc(CN3CC(F)(F)CNC3=O)cc2n1)C1CCC(F)(F)CC1)c1cnn(CC2CC2)n1` [Example 24, (S)-2-(Cyclopropylmethyl)-N-((7-((5,5-difluoro-2-oxotetrahydropyrimidin-1(2H)-yl)methyl)imidazo[1,2-b]pyridazin-2-yl)(4,4-difluorocyclohexyl)methyl)-2H-1,2,3-triazole-4-carboxamide], for which the IC50 in test [2] and in test [4] was more than 100 nM throughout.
As for `CC1(F)CNC(=O)N(Cc2cnn3cc([C@@H](NC(=O)c4nonc4C4CC4)C4CCC(F)(F)CC4)nc3c2)C1` (single isomer, unassigned) [Example 1, 4-Cyclopropyl-N—((S)-(4,4-difluorocyclohexyl)(7-(((R*)-5-fluoro-5-methyl-2-oxotetrahydropyrimidin-1(2H)-yl)methyl)imidazo[1,2-b]pyridazin-2-yl)methyl)-1,2,5-oxadiazole-3-carboxamide], the IC50 was less than 50 nM in test [2] and more than 100 nM in test [4].
With `CC(C)n1nccc1C(=O)N[C@H](c1cn2ncc([C@@H](C3CC3)N3CC(F)(F)CNC3=O)cc2n1)C1CCC(F)(F)CC1` [Example 10, N—((S)-(7-((R)-Cyclopropyl(5,5-difluoro-2-oxotetrahydropyrimidin-1(2H)-yl)methyl)imidazo[1,2-b]pyridazin-2-yl)(4,4-difluorocyclohexyl)methyl)-1-isopropyl-1H-pyrazole-5-carboxamide], the IC50 is 50 to 100 nM in test [2] and less than 50 nM in test [4].
